These results are taken from US11702419B2, “Heterocyclic compound and use thereof” (Takeda Pharmaceutical Company Limited, priority 2018, dated 2023).

For series [1] the following is noted: rodents; number of occurrence and depth; cited from earlier work.
The conditions of series [2]: in vivo; cited from earlier work.
For series [3], the target named is T1, NMDA receptor composed of four subunits consisting of two sets of heterodimers of NR1 and NR2B (human GRIN1 and GRIN2B-expressing HEK293 cells) (Homo sapiens, UniProt Q13224).
T1 construct: host or cells: HEK293 (tetracycline-inducible expression)
Briefly: NR2B Ca2+ influx assay. The format is cell-based. The conditions noted are these: 10 μM compound, glutamic acid/glycine-induced Ca2+ influx, FLIPR, read-out: inhibitory rate (10 μM compound concentration). Summed up: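 HEK293 cells expressing human GRIN1/GRIN2B were induced with tetracycline (diluted to 2 µg/mL) for 2 h, then Fluo-4AM loaded (2.5 µM) in pH 7.2 buffer with 1.8 mM CaCl2. Compound at 10 µM final was preincubated 15 min at room temperature, then challenged with buffer containing 30 µM glutamate/30 µM glycine. FLIPR fluorescence was read every 3 s for 5 min, with % inhibition from cumulative signal and agonist-free wells set as 100%.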

A further series deals with T2, hERG channel (Homo sapiens, UniProt Q12809).
T2 construct: Medicine
Nature of the series: hERG manual patch-clamp assay. It counts as cell-based. The conditions noted are these: 10 μmol/L test solution; hERG peak tail current 3 to 5 min after application, HEK293 cells. As to the method: hERG Manual Patch-Clamp Assay
In order to confirm “hERG channel inhibitory activity” which the compound of the present invention has, the hERG channel inhibitory activity was evaluated using human Ether-a-go-go-Related Gene (hERG)-expressing human embryonic kidney 293 (HEK293) cells.
hERG-stably expressing HEK293 cells were purchased from University of Wisconsin-Madison Dept. Medicine. The cells were cultured in a medium prepared by adding 10% FBS (fetal bovine serum, Life Technologies Corporation), sodium pyruvate (1 mmol/L; Life Technologies Corporation), MEM Non-Essential Amino Acid (1×; Life Technologies Corporation), 100 units/mL penicillin, 100 μg/mL streptomycin (Life Technologies Corporation) and 400 μg/mL G 418 (Geneticin, Sigma-Aldrich Co. LLC.) to Minimum Essential Medium (Sigma-Aldrich Co. LLC.) at 37° C., 5% CO2. The cultured cells were detached, suspended in a medium, and seeded on a cover glass, cultured, and used in a patch-clamp assay. […]
The hERG current passing through whole cell membranes under voltage-clamp was recorded by whole-cell patch-clamp method. […] During measurement, the extracellular fluid temperature in the chamber was set at 20 to 25° C., and the hERG current was measured using patch-clamp amplifier (Axopatch-200B, Molecular Devices, LLC). The obtained electrical signal was recorded on a computer via patch-clamp record and analysis software (pCLAMP 10, Molecular Devices, LLC). The absolute value of the hERG current value (peak tail current) was calculated based on the current value when depolarizing pulse at −50 mV, 110 msec was given, and the change (inhibitory rate) in the hERG current value (peak tail current) 3 to 5 min after the application of the 10 μmol/L test solution relative to before the application was calculated.

In series [4] the test system is NMDA receptor containing the NR2B subunit (hippocampus). Briefly: [3H]MK-801 binding test in vivo. Details: species or system Sprague Dawley rats. The following applies: [3H]MK-801 binding inhibitory rate, rat hippocampus. On the procedure:
[^3H]MK-801 Binding Test In Vivo
In order to confirm “functional antagonistic action on an NMDA receptor containing the NR2B subunit in vivo” which the compound of the present invention has, binding test was performed using tritium-labeled form of MK-801 ((5R,10S)-5-methyl-10,11-dihydro-5H-5,10-epiminodibenzo[a,d][7]annulene) ([^3H]MK-801), which is a compound capable of binding to the opening site of the NMDA receptor.
The example compound (3 mg/kg/2 mL, 0.5% MC water) or vehicle ([…], 0.5% MC water) was orally administered (p.o.) to Sprague Dawley rats (body weight 180-260 g). After a certain time (around after time-to maximum blood concentration), [^3H]MK-801 (20 μCi/kg/mL, Muromachi Kikai) was intravenously administered. After 10 min, the rats were euthanized by decapitation, and subjected to craniotomy, and the hippocampus was collected. The collected hippocampus was homogenized in 30 volumes (30 mL per 1 g tissue) ice-cooled 20 mM Hepes (pH7.5, Hampton Research) using a homogenizer (T10 basic Ultra-Turrax) for 10 sec. […] The filter was washed four times with ice-cooled saline (5 mL, Otsuka Pharmaceutical), put into a scintillation vial, and then 10 mL of liquid scintillator A (FUJIFILM Wako Pure Chemical Corporation) was added thereto, and the residual radioactivity was counted using liquid scintillation counter (ALOKA LSC-6100). Separately, the residual radioactivity in 100 μL of the homogenate before the filtration was counted in the same way. The value of [the residual radioactivity in the filter/the residual radioactivity in the 100 μL of the homogenate] was calculated as a [^3H]MK-801 binding rate to the NMDA receptor expressing in each individual hippocampus tissue. […] The difference between the percentage of [^3H]MK-801 binding rate in the group orally administered with the example compound and that in the vehicle control group (100%) was analyzed as [^3H]MK-801 binding inhibitory rate by the example compound.

For series [5] the following is noted: single intravenous administration; major depression and bipolar disorder; cited from earlier work.
The conditions of series [6]: continuous intravenous administration; cited from earlier work.
The conditions of series [7]: in vivo; cited from earlier work. The source holds these as a separate data set.

T1 sequence (Q13224 27-1484, other chains not shown): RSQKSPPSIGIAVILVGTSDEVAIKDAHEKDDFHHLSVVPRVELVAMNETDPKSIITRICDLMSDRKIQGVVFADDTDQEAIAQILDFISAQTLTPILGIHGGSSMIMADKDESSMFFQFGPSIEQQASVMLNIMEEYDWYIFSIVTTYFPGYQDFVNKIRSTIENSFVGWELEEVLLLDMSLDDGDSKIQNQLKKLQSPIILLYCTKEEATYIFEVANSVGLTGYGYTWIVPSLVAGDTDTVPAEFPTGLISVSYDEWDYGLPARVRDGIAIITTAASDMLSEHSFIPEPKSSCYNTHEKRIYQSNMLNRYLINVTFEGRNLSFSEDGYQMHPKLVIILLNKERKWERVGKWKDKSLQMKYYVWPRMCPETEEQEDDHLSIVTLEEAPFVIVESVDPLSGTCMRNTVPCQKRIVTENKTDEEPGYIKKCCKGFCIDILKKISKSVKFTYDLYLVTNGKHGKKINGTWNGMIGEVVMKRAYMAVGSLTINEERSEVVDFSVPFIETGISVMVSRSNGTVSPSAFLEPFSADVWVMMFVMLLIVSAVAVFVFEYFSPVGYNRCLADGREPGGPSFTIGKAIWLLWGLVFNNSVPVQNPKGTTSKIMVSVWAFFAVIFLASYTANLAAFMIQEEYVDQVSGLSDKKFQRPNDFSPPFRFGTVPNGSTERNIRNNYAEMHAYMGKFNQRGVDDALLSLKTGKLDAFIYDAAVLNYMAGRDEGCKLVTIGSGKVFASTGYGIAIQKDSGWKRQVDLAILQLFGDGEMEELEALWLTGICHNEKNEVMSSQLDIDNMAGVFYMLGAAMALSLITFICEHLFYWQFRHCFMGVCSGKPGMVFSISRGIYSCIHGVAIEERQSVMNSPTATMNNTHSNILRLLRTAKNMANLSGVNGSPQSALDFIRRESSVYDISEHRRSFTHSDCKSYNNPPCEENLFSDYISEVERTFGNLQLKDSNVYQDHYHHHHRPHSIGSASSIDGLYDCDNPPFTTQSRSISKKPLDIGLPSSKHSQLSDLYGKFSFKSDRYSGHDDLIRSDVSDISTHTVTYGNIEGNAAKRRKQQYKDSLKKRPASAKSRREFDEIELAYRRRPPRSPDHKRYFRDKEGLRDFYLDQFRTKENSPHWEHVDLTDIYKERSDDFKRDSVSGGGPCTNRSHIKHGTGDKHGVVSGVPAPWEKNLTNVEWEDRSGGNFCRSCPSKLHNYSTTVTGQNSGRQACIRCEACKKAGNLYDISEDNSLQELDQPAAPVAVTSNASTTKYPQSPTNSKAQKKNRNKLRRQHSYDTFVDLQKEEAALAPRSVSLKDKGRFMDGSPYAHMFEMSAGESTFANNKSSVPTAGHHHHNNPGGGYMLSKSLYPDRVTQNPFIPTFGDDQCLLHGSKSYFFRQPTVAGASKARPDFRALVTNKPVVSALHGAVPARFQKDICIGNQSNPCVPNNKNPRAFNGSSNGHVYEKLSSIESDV
T2 sequence (Q12809 whole entry): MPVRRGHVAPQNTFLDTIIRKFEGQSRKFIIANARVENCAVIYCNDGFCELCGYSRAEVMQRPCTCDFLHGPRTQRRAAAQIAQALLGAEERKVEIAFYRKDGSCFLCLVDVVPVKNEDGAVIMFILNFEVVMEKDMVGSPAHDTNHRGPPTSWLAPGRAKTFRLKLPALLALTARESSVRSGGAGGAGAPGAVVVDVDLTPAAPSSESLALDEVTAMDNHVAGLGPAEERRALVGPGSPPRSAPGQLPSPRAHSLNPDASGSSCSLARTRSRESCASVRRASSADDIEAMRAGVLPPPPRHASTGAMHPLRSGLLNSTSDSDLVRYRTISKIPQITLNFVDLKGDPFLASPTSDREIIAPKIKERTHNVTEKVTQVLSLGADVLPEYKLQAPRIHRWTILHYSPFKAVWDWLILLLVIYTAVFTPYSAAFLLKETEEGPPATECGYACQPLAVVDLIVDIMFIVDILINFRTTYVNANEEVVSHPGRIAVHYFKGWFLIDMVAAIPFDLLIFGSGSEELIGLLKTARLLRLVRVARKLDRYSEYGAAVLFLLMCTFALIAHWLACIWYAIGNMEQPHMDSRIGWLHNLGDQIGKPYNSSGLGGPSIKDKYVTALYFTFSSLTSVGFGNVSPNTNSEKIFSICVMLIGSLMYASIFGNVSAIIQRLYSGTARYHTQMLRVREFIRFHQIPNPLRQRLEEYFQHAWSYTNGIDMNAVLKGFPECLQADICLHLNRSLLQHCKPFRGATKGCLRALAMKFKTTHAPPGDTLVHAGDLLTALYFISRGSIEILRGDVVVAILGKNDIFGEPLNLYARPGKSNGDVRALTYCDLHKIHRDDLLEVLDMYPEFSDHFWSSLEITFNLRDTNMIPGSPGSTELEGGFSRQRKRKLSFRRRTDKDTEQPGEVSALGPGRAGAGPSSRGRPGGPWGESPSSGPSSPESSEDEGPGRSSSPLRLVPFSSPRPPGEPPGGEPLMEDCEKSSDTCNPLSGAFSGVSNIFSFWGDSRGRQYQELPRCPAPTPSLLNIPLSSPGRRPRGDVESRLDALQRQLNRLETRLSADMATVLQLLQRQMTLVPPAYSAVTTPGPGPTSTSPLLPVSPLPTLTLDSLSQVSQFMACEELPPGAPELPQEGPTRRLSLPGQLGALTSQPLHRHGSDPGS

For the compound `C[C@@H](CN1CCC(Cc2ccccc2)CC1)[C@@H](O)c1ccc(O)cc1` [Ro25-6981], in series [1], the “effect on cortical spreading depression” value is “suppress the number of occurrence and the depth of cortical spreading depression”. For the compound `CC(C(O)c1ccc(O)cc1)N1CCC(Cc2ccccc2)CC1` (stereo not drawn) [ifenprodil], in series [2], the “effect on pain threshold” value is on record as “increase in pain threshold”. Take `O=C(NCc1nnn2ccccc12)c1ccc(OC(F)(F)F)c(F)c1` [Example 13, 3-fluoro-N-([1,2,3]triazolo[1,5-a]pyridin-3-ylmethyl)-4-(trifluoromethoxy)benzamide]: the inhibition at 10 µM in series [3] was found to be 96%. Moreover, at hERG channel, the “inhibitory rate (10 μM compound concentration)” value amounted to 33.2. Besides, the “inhibitory rate (3 mg/kg, p.o.)” value in series [4] is recorded as 23%.

`CNC1(c2ccccc2Cl)CCCCC1=O` (stereo not drawn) [ketamine]: the “effect on depression symptom” value in series [5] is “improves depression symptom accompanying major depression and bipolar disorder rapidly and in a sustained manner”. On to `C[C@@H]([C@@H](O)c1ccc(O)cc1)N1CCC(O)(c2ccccc2)CC1` [CP-101,606], for which the “effect on cortical spreading depression” value in series [1] was “suppress the number of occurrence and the depth of cortical spreading depression”. In addition, the “effect on treatment resistant-depression symptom” value in series [6] was “significantly improves treatment resistant-depression symptom”. For the compound `CC12CC3CC(C)(C1)CC(N)(C3)C2` [memantine], the “effect on behavioral and psychological symptoms of dementia” value in series [7] is “partially improves behavioral and psychological symptoms of dementia”.

As to `Cn1ccn2ncc(CNC(=O)c3cnc(OC(F)F)c(F)c3)c12` [Example 58, 6-(difluoromethoxy)-5-fluoro-N-((1-methyl-1H-imidazo[1,2-b]pyrazol-7-yl)methyl)nicotinamide], the inhibition at 10 µM in series [3] was found to be 97%. At hERG channel, the “inhibitory rate (10 μM compound concentration)” value was 13.6. Also, in series [4], the “inhibitory rate (3 mg/kg, p.o.)” value is recorded as 27%.
